Measurements taken from ChEMBL document CHEMBL1201862, “PubChem BioAssay data set” (2004).
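Briefly, cells in 96-well plates were exposed to five compound concentrations for 48 h, and endpoints were estimated by linear interpolation. GI50 marks 50% less growth.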 Calls of active or inactive are those of the source. No stated cut-off is given here; in the data, active = GI50 up to about 1.1 µM and inactive = higher.

Key:
Test in all cases: inhibition of tumour cell growth, NCI panel, 48 h
K562 = system: K562
CCRF-CEM = system: CCRF-CEM
Malme-3M = system: Malme-3M
OVCAR-4 = system: OVCAR-4
SF-539 = system: SF-539
SK-MEL-5 = system: SK-MEL-5
EKVX = system: EKVX
RPMI-8226 = system: RPMI-8226
M14 = system: M14
SN12C = system: SN12C
SR = system: SR
A549 = system: A549
HCT-15 = system: HCT-15
SK-OV-3 = system: SK-OV-3
U-251 = system: U-251
SNB-75 = system: SNB-75

## CC#COP(=O)(OCC)OCC
K562
  GI50: > 100 µM (inactive)
CCRF-CEM
  GI50: 75 µM (inactive)
Malme-3M
  GI50: > 100 µM (inactive)
OVCAR-4
  GI50: > 100 µM (inactive)
SF-539
  GI50: > 100 µM (inactive)
SK-MEL-5
  GI50: > 100 µM (inactive)
EKVX
  GI50: > 100 µM (inactive)
RPMI-8226
  GI50: 85.1 µM (inactive)
M14
  GI50: > 100 µM (inactive)
SN12C
  GI50: > 100 µM (inactive)
SR
  GI50: 64.6 µM (inactive)
A549
  GI50: > 100 µM (inactive)
HCT-15
  GI50: > 100 µM
SK-OV-3
  GI50: > 100 µM (inactive)
U-251
  GI50: > 100 µM (inactive)

## CCCC(=O)C(CC)/C(CCC(=O)N(Cc1ccccc1)Cc1ccccc1)=N/NC(=O)C[N+](C)(C)C (stereo not drawn)
K562
  GI50: > 100 µM (inactive)
CCRF-CEM
  GI50: > 100 µM (inactive)
Malme-3M
  GI50: > 100 µM (inactive)
OVCAR-4
  GI50: > 100 µM (inactive)
SF-539
  GI50: > 100 µM (inactive)
SK-MEL-5
  GI50: > 100 µM (inactive)
EKVX
  GI50: > 100 µM (inactive)
SNB-75
  GI50: > 100 µM (inactive)
M14
  GI50: > 100 µM (inactive)
SN12C
  GI50: > 100 µM (inactive)
SR
  GI50: > 100 µM (inactive)
A549
  GI50: > 100 µM (inactive)
SK-OV-3
  GI50: > 100 µM (inactive)
U-251
  GI50: > 100 µM (inactive)

## CC(C)NC(C)C(C)c1ccccc1 (stereo not drawn)
K562
  GI50: > 100 µM (inactive)
CCRF-CEM
  GI50: > 100 µM (inactive)
Malme-3M
  GI50: > 100 µM (inactive)
OVCAR-4
  GI50: > 100 µM (inactive)
SF-539
  GI50: > 100 µM (inactive)
SK-MEL-5
  GI50: > 100 µM (inactive)
EKVX
  GI50: > 100 µM (inactive)
RPMI-8226
  GI50: > 100 µM (inactive)
SNB-75
  GI50: > 100 µM (inactive)
M14
  GI50: > 100 µM (inactive)
SN12C
  GI50: > 100 µM (inactive)
A549
  GI50: > 100 µM (inactive)
SK-OV-3
  GI50: > 100 µM (inactive)
U-251
  GI50: > 100 µM (inactive)

## CN1CCN(c2nc(N)c(Br)c(Cl)n2)CC1
K562
  GI50: > 100 µM (inactive)
CCRF-CEM
  GI50: > 100 µM (inactive)
Malme-3M
  GI50: > 100 µM (inactive)
OVCAR-4
  GI50: > 100 µM (inactive)
SK-MEL-5
  GI50: > 100 µM (inactive)
EKVX
  GI50: > 100 µM (inactive)
RPMI-8226
  GI50: > 100 µM (inactive)
SNB-75
  GI50: 58.3 µM (inactive)
M14
  GI50: > 100 µM (inactive)
SN12C
  GI50: > 100 µM (inactive)
A549
  GI50: > 100 µM (inactive)
HCT-15
  GI50: > 100 µM
SK-OV-3
  GI50: > 100 µM (inactive)

## C#Cc1ccccc1N1C(=O)C=CC1=O
K562
  GI50: > 100 µM (inactive)
CCRF-CEM
  GI50: > 100 µM (inactive)
Malme-3M
  GI50: > 100 µM (inactive)
OVCAR-4
  GI50: > 100 µM (inactive)
SK-MEL-5
  GI50: > 100 µM (inactive)
EKVX
  GI50: > 100 µM (inactive)
RPMI-8226
  GI50: > 100 µM (inactive)
SNB-75
  GI50: > 100 µM (inactive)
M14
  GI50: > 100 µM (inactive)
SN12C
  GI50: > 100 µM (inactive)
SR
  GI50: > 100 µM (inactive)
A549
  GI50: > 100 µM (inactive)
SK-OV-3
  GI50: > 100 µM (inactive)
U-251
  GI50: > 100 µM (inactive)

## Cc1ccc(C2=NO[C@@H]3C(=O)N(c4ccc(Cc5ccc(N6C(=O)[C@H]7C(c8ccc(C)cc8)=NO[C@H]7C6=O)cc5)cc4)C(=O)[C@H]23)cc1
K562
  GI50: > 100 µM (inactive)
CCRF-CEM
  GI50: > 100 µM (inactive)
Malme-3M
  GI50: > 100 µM (inactive)
OVCAR-4
  GI50: > 100 µM (inactive)
SF-539
  GI50: > 100 µM (inactive)
SK-MEL-5
  GI50: > 100 µM (inactive)
EKVX
  GI50: > 100 µM (inactive)
RPMI-8226
  GI50: > 100 µM (inactive)
SNB-75
  GI50: 79.4 µM (inactive)
M14
  GI50: > 100 µM (inactive)
SN12C
  GI50: > 100 µM (inactive)
A549
  GI50: > 100 µM (inactive)
HCT-15
  GI50: > 100 µM
SK-OV-3
  GI50: > 100 µM (inactive)
U-251
  GI50: > 100 µM (inactive)

## Cc1cccc(C)c1N1C(=O)C(=O)C(c2nc3ccccc3s2)/C(=N\N)C1=O (stereo not drawn)
K562
  GI50: 31.8 µM (inactive)
Malme-3M
  GI50: > 100 µM (inactive)
OVCAR-4
  GI50: > 100 µM (inactive)
SF-539
  GI50: > 100 µM (inactive)
SK-MEL-5
  GI50: > 100 µM (inactive)
EKVX
  GI50: 47 µM (inactive)
RPMI-8226
  GI50: 39.9 µM (inactive)
SNB-75
  GI50: > 100 µM (inactive)
M14
  GI50: > 100 µM (inactive)
SN12C
  GI50: 78.7 µM (inactive)
A549
  GI50: > 100 µM (inactive)
HCT-15
  GI50: > 100 µM
SK-OV-3
  GI50: > 100 µM (inactive)
U-251
  GI50: > 100 µM (inactive)

## CC(C)C(=O)N[C@@H](C)C(=O)N(Cc1ccc2ccccc2c1)N=O
K562
  GI50: 36.1 µM (inactive)
CCRF-CEM
  GI50: 61.4 µM (inactive)
Malme-3M
  GI50: > 100 µM (inactive)
OVCAR-4
  GI50: 54.7 µM (inactive)
SF-539
  GI50: > 100 µM (inactive)
SK-MEL-5
  GI50: > 100 µM (inactive)
EKVX
  GI50: > 100 µM (inactive)
RPMI-8226
  GI50: 43.6 µM (inactive)
SNB-75
  GI50: > 100 µM (inactive)
M14
  GI50: 84.1 µM (inactive)
SN12C
  GI50: > 100 µM (inactive)
A549
  GI50: 82.4 µM (inactive)
HCT-15
  GI50: 77.4 µM
SK-OV-3
  GI50: > 100 µM (inactive)
U-251
  GI50: 72.4 µM (inactive)

## COc1ccc2c(c1)Cc1c-2[nH]c2cc3c(cc2c1=O)OCO3
K562
  GI50: 7.94 µM (inactive)
CCRF-CEM
  GI50: 4.33 µM (inactive)
Malme-3M
  GI50: 13.7 µM (inactive)
OVCAR-4
  GI50: 25.4 µM (inactive)
SF-539
  GI50: 14.3 µM (inactive)
SK-MEL-5
  GI50: 6.21 µM (inactive)
EKVX
  GI50: 23.8 µM (inactive)
RPMI-8226
  GI50: 6.11 µM (inactive)
M14
  GI50: 14.2 µM (inactive)
SN12C
  GI50: 30.7 µM (inactive)
A549
  GI50: 7.31 µM (inactive)
HCT-15
  GI50: 9.91 µM
SK-OV-3
  GI50: 22.3 µM (inactive)
U-251
  GI50: 9.89 µM (inactive)

## Fc1cccc2c1cc1ccc3cccc4ccc2c1c34
K562
  GI50: > 100 µM (inactive)
CCRF-CEM
  GI50: > 100 µM (inactive)
Malme-3M
  GI50: > 100 µM (inactive)
OVCAR-4
  GI50: > 100 µM (inactive)
SF-539
  GI50: > 100 µM (inactive)
SK-MEL-5
  GI50: > 100 µM (inactive)
EKVX
  GI50: > 100 µM (inactive)
SNB-75
  GI50: > 100 µM (inactive)
M14
  GI50: > 100 µM (inactive)
SN12C
  GI50: > 100 µM (inactive)
SR
  GI50: 60.5 µM (inactive)
A549
  GI50: > 100 µM (inactive)
SK-OV-3
  GI50: > 100 µM (inactive)
U-251
  GI50: > 100 µM (inactive)

## CC(=O)C1=C(O)C2C3c4c[nH]c5cccc(c45)CC3C(C)(C)N2C1=O (stereo not drawn)
K562
  GI50: 45.7 µM (inactive)
CCRF-CEM
  GI50: 27.2 µM (inactive)
Malme-3M
  GI50: 33.9 µM (inactive)
OVCAR-4
  GI50: > 100 µM (inactive)
SF-539
  GI50: 15.6 µM (inactive)
SK-MEL-5
  GI50: 11.7 µM (inactive)
EKVX
  GI50: 20.6 µM (inactive)
RPMI-8226
  GI50: 4.85 µM (inactive)
M14
  GI50: > 100 µM (inactive)
A549
  GI50: 28.7 µM (inactive)
HCT-15
  GI50: 34.6 µM
SK-OV-3
  GI50: > 100 µM (inactive)
U-251
  GI50: 17.1 µM (inactive)

## Cc1ccccc1Cn1nc2ccccc2cc1=O
K562
  GI50: > 100 µM (inactive)
CCRF-CEM
  GI50: > 100 µM (inactive)
Malme-3M
  GI50: > 100 µM (inactive)
OVCAR-4
  GI50: > 100 µM (inactive)
SF-539
  GI50: > 100 µM (inactive)
SK-MEL-5
  GI50: > 100 µM (inactive)
EKVX
  GI50: > 100 µM (inactive)
RPMI-8226
  GI50: > 100 µM (inactive)
SNB-75
  GI50: 22.1 µM (inactive)
M14
  GI50: > 100 µM (inactive)
SN12C
  GI50: > 100 µM (inactive)
A549
  GI50: > 100 µM (inactive)
HCT-15
  GI50: > 100 µM
SK-OV-3
  GI50: > 100 µM (inactive)
U-251
  GI50: > 100 µM (inactive)

## COc1ccc(C(=O)O/N=C2\CCCC\C2=C/c2ccccc2)cc1
K562
  GI50: > 10 µM (inactive)
CCRF-CEM
  GI50: > 100 µM (inactive)
OVCAR-4
  GI50: 27.6 µM (inactive)
SF-539
  GI50: 27.5 µM (inactive)
SK-MEL-5
  GI50: > 100 µM (inactive)
EKVX
  GI50: > 100 µM (inactive)
SNB-75
  GI50: 28.4 µM (inactive)
M14
  GI50: > 100 µM (inactive)
SN12C
  GI50: > 100 µM (inactive)
A549
  GI50: > 100 µM (inactive)
HCT-15
  GI50: > 100 µM
SK-OV-3
  GI50: > 100 µM (inactive)
U-251
  GI50: 57.3 µM (inactive)

## COC1[C@H](NC(=O)OC(C)(C)C)C(=O)N1Cc1ccccc1 (stereo partly drawn)
K562
  GI50: > 100 µM (inactive)
CCRF-CEM
  GI50: > 100 µM (inactive)
Malme-3M
  GI50: > 100 µM (inactive)
OVCAR-4
  GI50: > 100 µM (inactive)
SF-539
  GI50: > 100 µM (inactive)
SK-MEL-5
  GI50: > 100 µM (inactive)
EKVX
  GI50: > 100 µM (inactive)
RPMI-8226
  GI50: > 100 µM (inactive)
SNB-75
  GI50: > 100 µM (inactive)
M14
  GI50: > 100 µM (inactive)
SN12C
  GI50: > 100 µM (inactive)
A549
  GI50: > 100 µM (inactive)
HCT-15
  GI50: > 100 µM
SK-OV-3
  GI50: > 100 µM (inactive)
U-251
  GI50: > 100 µM (inactive)
